According to US20020147175A1, “Synergistic ECTA compositions” (priority 2000, published 2002):

What was measured:
Format in all cases: cell-based, human
MCF7TDX cells [1] = assay: 384-well alamarBlue interaction screening assay with NB1011; details: drug combined with NB1011, 5-day incubation, average of at least 4 consecutive dose/effect levels
Method: (§1) Normal human colon epithelial cells (CCD18co) and skin fibroblasts (Det551) were purchased from ATCC (Rockville, Md.). MCF7TDX, human breast carcinoma cells resistant to 2 μM Tomudex were obtained from Dr. Patrick Johnston, Queens University, Belfast. […] The MCF7TDX and the H630R10 cell lines have been previously described in Drake, J. C. et al., 1996 and Copur, S. et al., 1995, respectively.
(§2) All cells were cultured under standard conditions of 37° C., 95% humidified air, 5% CO2 in RPMI 1640 culture medium containing 10% fetal calf serum (Life Technologies) and penicillin/streptomycin/fungizone. MCF7TDX cells were maintained continuously in 2 μM Tomudex, and H630R10 cells were maintained continuously in 10 μM 5-FU. The medium was renewed or the cells were passaged about every three days to maintain optimal growth conditions. Normal cells were passaged a maximum of 15 times to avoid senescence.
(§3) 500 cells per well were transferred to a 384-well tissue culture plate (Corning Inc., Corning, N.Y.) and allowed to attach for 24 hours in standard culture conditions. Compounds were then applied in a bidirectional (checker board) pattern (Chou, T. C. and Talalay, P. 1984). Following a 5-day incubation, the redox indicator dye, alamarBlue (AccuMed International, Westlake, Ohio) was added to each well at a 10% v/v ratio, and fluorescence was monitored at 535 excitation, 595 emission. Cytotoxic effect levels and drug interactions were assessed by the combination index method (Chou, T. C. and Talalay, P. 1984 and Bible, K. C. et al. 1997), described briefly below.
(§4) Only experiments with linear correlation coefficients (r)>0.9 were accepted for analysis. A combination index (CI) was then calculated to assess synergism or antagonism according to the following equation which assumes an independent mechanism of drug action (mutual exclusivity):
(§5) CI=(D)1/(Dx)1+(D)2/(Dx)2+(D)1(D)2/(Dx)1(Dx)2 [Equation 2]
(§6) where (D)1 and (D)2 are the concentrations of drug 1 and drug 2 which combined produce x% inhibition, and (Dx)1 and(Dx)2 are the concentrations of each drug which alone produce x% inhibition. CI=1 indicates an additive interaction, CI<1 indicates synergy, and CI>1 indicates antagonism. For each experiment CI's from several different effect levels and concentrations of a constant molar ratio were averaged.
(§7) In general, a combination index of <1 indicates synergy, ˜1 indicates additivity, and >1 indicates antagonism (Pegram, M. D. et al. (1999)).

[2] = system: Det551 normal skin fibroblasts; assay: 96-well crystal violet combination cytotoxicity assay with NB1011; details: for Average combination index (CI): drug combined with NB1011 at constant molar ratio, Det551 normal cells, 96-well crystal violet, 72 hour incubation; for Interaction: interaction with NB1011, Det551; on interaction: key: Syn = synergy; Ant = antagonism; Add = additivity
Method: as §1, §2
(§8) Exponentially rowing cells were transferred at a density of 1.0−5.5×10^3 cells per well to a 96-well tissue culture plate and allowed to attach for 24 hours. Compounds were then applied in duplicate half log serial dilutions. Each compound was tested separately, and mixed together at a single molar ratio approximately equal to the ratio of the individual IC50 values. After an additional 72 hour incubation, cells were washed once with PBS and stained with 0.5% crystal violet in methanol. Plates were washed gently in water to remove unbound stain and allowed to dry overnight. Crystal violet stain bound to the total protein of attached cells was redissolved in Sorenson's buffer (0.025 M sodium citrate, 0.025 M citric acid in 50% ethanol), and absorbance monitored at 535 nm. Sigmoid curves were fit according to the Hill inhibitory Emax model, and IC50 calculated as the average of three or more separate determinations. Where applicable, the combination index for multiple drug effects was calculated according to the median-effect principle (Chou, T. C. and Talalay, P. 1984) using the CalcuSyn software from Biosoft (Ferguson, Mo.). Briefly, the IC50 and the slope parameter (m) for each agent alone were determined from the median effect plot, an x,y plot of log(D) vs log (fa/fu) based on Chou's median effect equation:
(§9) fa/fu=(D/Dm)^m [Equation 1]
as §4, §5, §6
(§10) The 96-well format was chosen for more detailed drug interaction studies. […] To analyze whether any of these drugs would enhance the activity of NB1011 specifically in tumor cells, two normal cell types, Det551 and CCD18co, were included in the assays.

[3] = system: CCD18co normal colon epithelial cells; assay: as above; details: for Average combination index (CI): drug combined with NB1011 at constant molar ratio, CCD18co normal cells, 96-well crystal violet, 72 hour incubation; for Interaction: interaction with NB1011, CCD18co
Method: as §1, §2, §8, §9, §4, §5, §6, §10

H630R10 cells [4] = assay: as above; details: for Average combination index (CI): drug combined with NB1011 at constant molar ratio, 96-well crystal violet, 72 hour incubation; for Interaction: interaction with NB1011
Method: as §1, §2, §8, §9, §4, §5, §6, §10

MCF7TDX cells [5] = assay: as above; details: for Average combination index (CI): drug combined with NB1011 at constant molar ratio, 96-well crystal violet, 72 hour incubation; for Interaction: interaction with NB1011
Method: as §1, §2, §8, §9, §4, §5, §6, §10

H630R10 cells [6] = assay: 384-well alamarBlue interaction screening assay with NB1011; details: drug combined with NB1011, 5-day incubation, average of at least 4 consecutive dose/effect levels
Method: as §1, §2, §3, §4, §5, §6, §7

Row | SMILES | Combination Index ± s.e.m. (MCF7TDX cells [1]) | Average combination index (CI) [2] | Interaction [2] | Average combination index (CI) [3] | Interaction [3] | Average combination index (CI) (H630R10 cells [4]) | Interaction (H630R10 cells [4]) | Average combination index (CI) (MCF7TDX cells [5]) | Interaction (MCF7TDX cells [5]) | Combination Index ± s.e.m. (H630R10 cells [6])
1 | N.N.[Cl][Pt][Cl] [Cisplatin] | 1.51 ± 0.35 |  |  |  |  |  |  |  |  | 
2 | OCCN(CCO)c1nc(N2CCCCC2)c2nc(N(CCO)CCO)nc(N3CCCCC3)c2n1 [Dipyridamole, dipyridamole] |  | 1.17 | Add | 1.30 | Ant | 0.75 | Syn | 0.51 | Syn | 
3 | COc1cccc2c1C(=O)c1c(O)c3c(c(O)c1C2=O)C[C@@](O)(C(=O)CO)C[C@@H]3O[C@H]1C[C@H](N)[C@H](O)[C@H](C)O1 [Doxorubicin] |  |  |  |  |  |  | Ant |  | Ant | 
4 | CCc1c2c(nc3ccc(OC(=O)N4CCC(N5CCCCC5)CC4)cc13)-c1cc3c(c(=O)n1C2)COC(=O)[C@]3(O)CC [Irinotecan] |  |  |  |  |  |  |  |  |  | 1.26 ± 0.20
5 | O=[N+]([O-])c1ccc(CSc2ncnc3c2ncn3C2OC(CO)C(O)C2O)cc1 (stereo not shown) [NBMPR, p-nitrobenzylthioinosine] |  | 1.43 | Ant | 3.93 | Ant | 0.35 | Syn | 0.57 | Syn | 
6 | O=C1[O][Pt]2([NH][C@@H]3CCCC[C@H]3[NH]2)[O]C1=O [Oxaliplatin] |  |  |  |  |  |  | Ant |  | Ant | 
7 | CC(=O)O[C@H]1C(=O)[C@@]2(C)[C@H]([C@H](OC(=O)c3ccccc3)[C@]3(O)C[C@H](OC(=O)[C@H](O)[C@@H](NC(=O)c4ccccc4)c4ccccc4)C(C)=C1C3(C)C)[C@]1(OC(C)=O)CO[C@@H]1C[C@@H]2O [Taxol] |  |  |  |  |  |  |  |  |  | 0.99 ± 0.15
8 | CC[C@]1(O)C[C@@H]2CN(CCc3c([nH]c4ccccc34)[C@@](C(=O)OC)(c3cc4c(cc3OC)N(C)[C@H]3[C@@](O)(C(=O)OC)[C@H](OC(C)=O)[C@]5(CC)C=CCN6CC[C@]43[C@@H]65)C2)C1 [Vinblastine] |  |  | Syn |  | Syn |  | Syn |  | Ant | 0.78 ± 0.32
